The record followed here is PubChem BioAssay (NCI).

Values joined by “and” are separate entries in the source; they are usually repeats but may differ in a detail not shown here. Equal entries are not always repeated.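 Exposure lasted 48 hours, with cells grown in 96-well plates and compounds tested at five concentrations. GI50 marks 50% less growth. TGI marks complete inhibition of growth.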

Some test systems named below: OVCAR-8 ovarian; HOP-92 NSCLC; MCF7 breast; HS 578T breast; SK-OV-3 ovarian; HT29 colon; BT-549 breast; SK-MEL-28 melanoma; A549 NSCLC; HCT-15 colon.
Assay in all cases: DTP human tumour cell line panel, 48 h

For `Nc1nc2ccc([C@@H]3Nc4ccc5[nH]ncc5c4[C@H]4[C@H]5CCC(C5)[C@H]43)cc2s1`, the GI50 in the assay with OVCAR-8 ovarian is 2350 nM; in the assay with HOP-92 NSCLC, 1670 nM; in the assay on MCF7 breast it was 412 nM; with HS 578T breast it was 1390 nM; in the assay with SK-OV-3 ovarian, 1730 nM; in the assay on HT29 colon, 435 nM. Besides, the GI50 is 1250 nM with BT-549 breast, 1.36 µM with SK-MEL-28 melanoma, 994 nM in the assay with A549 NSCLC and 505 nM in the assay on HCT-15 colon. Further, the TGI is 16.7 µM in the assay on OVCAR-8 ovarian; 11.8 µM in the assay with HOP-92 NSCLC; 1.73 µM with MCF7 breast; 4.4 µM with HS 578T breast; 3.63 µM with SK-OV-3 ovarian; 11 µM in the assay on HT29 colon. For the same compound, the TGI with BT-549 breast is 5.25 µM; in the assay on SK-MEL-28 melanoma, 4.29 µM; with A549 NSCLC it was 3.98 µM; in the assay on HCT-15 colon it was 2.64 µM.

As to `COC(=O)c1ccc(=O)c2nc3/c(=C/O)c(O)cc(=O)c3[nH]c12`, the GI50 in the assay on OVCAR-8 ovarian is 364 nM; in the assay with MCF7 breast, 652 nM; in the assay with HS 578T breast it was 301 nM; with SK-OV-3 ovarian, 2620 nM; in the assay with HT29 colon it was 1030 nM; in the assay on BT-549 breast, 347 nM. In addition, the values for the GI50 with SK-MEL-28 melanoma, in the assay with A549 NSCLC and in the assay with HCT-15 colon were 4.17 µM, 514 nM and 420 nM, respectively. Also, the TGI with OVCAR-8 ovarian is 2.95 µM and 24.9 µM; in the assay on HOP-92 NSCLC it was 6.03 µM and 11.1 µM; with MCF7 breast it was 17.5 µM and 22.8 µM; in the assay with HS 578T breast, 23 µM and 20.1 µM; in the assay on SK-OV-3 ovarian, 16.4 µM and 20.8 µM; in the assay with HT29 colon, > 39.8 µM and 28.5 µM. The TGI with BT-549 breast is 6.14 µM and 12.1 µM; in the assay on SK-MEL-28 melanoma, 19.8 µM and 21.1 µM; in the assay on A549 NSCLC, 14.3 µM and 45 µM; in the assay on HCT-15 colon, 21.4 µM and 14.5 µM.

`CC[C@@]1(O)C(=O)OCc2c1cc1n(c2=O)Cc2cc3cc(OC)ccc3nc2-1`: the GI50 is 15.3 nM and 23.9 nM in the assay with OVCAR-8 ovarian; 25.1 nM in the assay on HOP-92 NSCLC; 86.4 nM in the assay on HT29 colon; 0.894 µM with SK-MEL-28 melanoma; 67.2 nM and 10.9 nM with A549 NSCLC; 223 nM with HCT-15 colon. The TGI is 0.297 µM and 0.35 µM in the assay with OVCAR-8 ovarian; 0.084 µM and 0.41 µM in the assay with HOP-92 NSCLC; 0.196 µM in the assay with MCF7 breast; 0.238 µM with HT29 colon; 2.92 µM with A549 NSCLC; 8.12 µM with HCT-15 colon.

With `C=C(CNCCc1ccc(O)cc1)[C@@H]1CC[C@]2(CO)CC[C@]3(C)[C@H](CC[C@@H]4[C@@]5(C)CCC(=O)C(C)(C)[C@@H]5CC[C@]43C)[C@@H]12`, the GI50 in the assay with OVCAR-8 ovarian was 1730 nM; in the assay with HOP-92 NSCLC it was 1010 nM; in the assay on MCF7 breast, 1870 nM; in the assay with SK-OV-3 ovarian, 1790 nM; with HT29 colon, 1620 nM; with BT-549 breast it was 1710 nM. Besides, the GI50 in the assay with SK-MEL-28 melanoma is 1.7 µM; in the assay on A549 NSCLC, 1630 nM; in the assay with HCT-15 colon it was 1470 nM. Further, the TGI in the assay with OVCAR-8 ovarian is 3.16 µM; with HOP-92 NSCLC, 2.26 µM; with MCF7 breast, 3.84 µM; in the assay with SK-OV-3 ovarian, 3.51 µM; with HT29 colon it was 3.08 µM; with BT-549 breast, 3.29 µM. The TGI in the assay on SK-MEL-28 melanoma is 3.14 µM; in the assay with A549 NSCLC, 2.99 µM; with HCT-15 colon, 2.89 µM.

In the case of `OCCCSc1ccccc1SCCCO`, the TGI in the assay on OVCAR-8 ovarian, in the assay on HOP-92 NSCLC, with MCF7 breast, in the assay with SK-OV-3 ovarian, in the assay on HT29 colon and in the assay with BT-549 breast was above 100 µM throughout. Further, the TGI in the assay with SK-MEL-28 melanoma, in the assay with A549 NSCLC and in the assay with HCT-15 colon was above 100 µM in each case.

Regarding `COc1cc(NN=C(c2ccc(O)cc2)c2ccc(O)cc2)c([N+](=O)[O-])cc1[N+](=O)[O-]`, the GI50 in the assay with OVCAR-8 ovarian is 4910 nM; in the assay with HOP-92 NSCLC it was 12100 nM; in the assay on MCF7 breast, 5710 nM; in the assay on SK-OV-3 ovarian it was 16600 nM; in the assay on HT29 colon, 10900 nM; in the assay on BT-549 breast it was 14000 nM. Also, the values for the GI50 in the assay with SK-MEL-28 melanoma, with A549 NSCLC and with HCT-15 colon were 15.3 µM, 7590 nM and 5750 nM, respectively. The TGI in the assay with OVCAR-8 ovarian is 27.5 µM; in the assay with HOP-92 NSCLC, 31.6 µM; in the assay on MCF7 breast, 21.9 µM; in the assay with SK-OV-3 ovarian it was 30.2 µM; in the assay with HT29 colon, 25.6 µM; in the assay on BT-549 breast, 30.2 µM. In addition, the TGI was 33.9 µM with SK-MEL-28 melanoma, 33.7 µM in the assay on A549 NSCLC and 20.1 µM in the assay on HCT-15 colon.

`Nc1nc2c(c3ncccc13)C(c1cccc(Cl)c1)Cc1ncccc1-2` (configuration not stated): the GI50 with OVCAR-8 ovarian was 3950 nM; with MCF7 breast, 514 nM; in the assay on HS 578T breast, 3830 nM; with SK-OV-3 ovarian, 2690 nM; in the assay with HT29 colon, 805 nM; in the assay with BT-549 breast it was 2280 nM. Besides, the GI50 with SK-MEL-28 melanoma is 8.17 µM; in the assay on A549 NSCLC, 3080 nM; with HCT-15 colon, 1220 nM. The TGI in the assay on OVCAR-8 ovarian was determined as 37.5 µM; in the assay with MCF7 breast, 17.6 µM; with HS 578T breast, 34.4 µM; in the assay on SK-OV-3 ovarian, 23.2 µM; in the assay with HT29 colon it was 10.8 µM; in the assay on BT-549 breast, 13.3 µM. Also, the TGI in the assay with SK-MEL-28 melanoma is 28.4 µM; with A549 NSCLC, above 100 µM; in the assay with HCT-15 colon, 20.6 µM.

`N#CC1C(=N)Cc2ccccc2-c2ccccc21` (configuration not stated): the GI50 with OVCAR-8 ovarian was 5810 nM; in the assay on HOP-92 NSCLC, 10000 nM; in the assay on MCF7 breast it was 4200 nM; in the assay on HS 578T breast it was 5380 nM; with SK-OV-3 ovarian, 4920 nM; with HT29 colon, 4100 nM. The GI50 in the assay with BT-549 breast is 8640 nM; in the assay on SK-MEL-28 melanoma it was 6.36 µM; in the assay with A549 NSCLC, 4580 nM. The TGI is 41.1 µM with OVCAR-8 ovarian; 36.6 µM with HOP-92 NSCLC; 80.1 µM in the assay on MCF7 breast; 65.3 µM in the assay on HS 578T breast; 41.2 µM in the assay on SK-OV-3 ovarian; 19.6 µM in the assay with HT29 colon. Moreover, the TGI is 38.7 µM in the assay with BT-549 breast, 30.3 µM in the assay with SK-MEL-28 melanoma and above 100 µM with A549 NSCLC.

The GI50 is the concentration that inhibits growth by half. What is called TGI is the concentration giving total growth inhibition. The low end stands for more potent growth arrest, the high end for less potent growth arrest.
